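48-hour exposure; five concentrations; linearly interpolated endpoints. GI50 marks 50% less growth.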 Active and inactive are the calls of the source. Cut-off read from the data, not from the text of the source: active = GI50 up to about 1.1 µM and inactive = higher.

Common to all, as to experiment: inhibition of tumour cell growth, NCI panel, 48 h
In assay [1] the test system is IGROV-1.
For assay [2], the system named is NCI-H23.
The test system of assay [3] is Malme-3M.
Assay [4] relates to HCT-15.
Assay [5] relates to OVCAR-4.
For assay [6], the system named is UACC-257.
In assay [7] the test system is NCI-H460.
For assay [8], the system named is HL-60.
In assay [9] the test system is KM-20L2.
Assay [10] relates to UO-31.
In assay [11] the test system is SF-295.
Assay [12] relates to SN12C.
In assay [13] the test system is NCI-H522.
Assay [14] has as its system DU-145.
The subject of assay [15] is OVCAR-5.
For assay [16], the system named is Hs-578T.
In assay [17] the test system is HOP-92.
Assay [18] concerns MDA-MB-435.
Assay [19] has as its system MDA-MB-231.
Assay [20] has as its system T47D.

For `O=[N+]([O-])c1ccc(Cl)cc1C1SCc2nc3ccccc3n21` (stereo not drawn), the GI50 in assay [1] was 80.5 µM (inactive); in [2], 27.6 µM (inactive); in assay [3], 99.8 µM (inactive); in assay [4] it was 31 µM; in [5], 44.4 µM (inactive); in [6], 45.2 µM (inactive). Moreover, the GI50 in assay [7] is 5.3 µM (inactive); in assay [8] it was 31 µM (inactive); in assay [9], > 100 µM (inactive); in [10], 22.1 µM (inactive); in assay [11], 85.7 µM (inactive); in assay [12], 54.1 µM (inactive). Also, the GI50 in assay [13] was 24.4 µM (inactive).
With `NC1CCC(c2cc3ccccc3s2)(N2CCCCC2)CC1` (stereo not drawn), the GI50 in assay [1] is 1.66 µM (inactive); in [2], 1.64 µM (inactive); in [3], 2.23 µM (inactive); in assay [14], 4.67 µM (inactive); in assay [4], 1.77 µM; in assay [15], 1.48 µM (inactive). Moreover, the GI50 in [5] is 3.33 µM (inactive); in assay [16] it was 4.11 µM (inactive); in assay [6], 1.62 µM (inactive); in assay [17], 0.489 µM (active); in assay [7] it was 1.63 µM (inactive); in assay [8], 1.85 µM (inactive). The GI50 is 1.35 µM (inactive) in assay [18]; 3.35 µM (inactive) in [19]; 2.31 µM (inactive) in [10]; 2.64 µM (inactive) in assay [11]; 1.67 µM (inactive) in assay [12]; 1.76 µM (inactive) in assay [13]. In addition, in [20], the GI50 is 2.09 µM (inactive).
For `CC1CCSC(N(C(=O)N(C)c2ccccc2)c2ccccc2)=N1` (stereo not drawn), the GI50 is > 100 µM (inactive) in assay [1]; > 100 µM (inactive) in [2]; > 100 µM (inactive) in assay [3]; above 100 µM in assay [4]; > 100 µM (inactive) in assay [15]; > 100 µM (inactive) in assay [6]. The GI50 in assay [7], in assay [8], in assay [9], in assay [10], in [11] and in assay [12] was > 100 µM (inactive) each time. The GI50 in assay [13] is > 100 µM (inactive).
As for `N=C1C(=N)c2ccccc2-c2ccccc21`, the GI50 in assay [1] is 2 µM (inactive); in [2], 0.6 µM (active); in assay [3], 1.19 µM (inactive); in [14] it was 1.49 µM (inactive); in assay [4], 1.55 µM; in assay [15] it was 2 µM (inactive). Moreover, the GI50 in assay [5] is 1.45 µM (inactive); in assay [16], 2.64 µM (inactive); in [6] it was 0.692 µM (active); in assay [17], 2.49 µM (inactive); in assay [7], 1.38 µM (inactive); in assay [8], 0.194 µM (active). In addition, the GI50 is 0.199 µM (active) in [18]; 0.313 µM (active) in [19]; 1.61 µM (inactive) in assay [10]; 1.62 µM (inactive) in assay [11]; 1.19 µM (inactive) in assay [12]; 1.21 µM (inactive) in assay [13]. The GI50 in [20] is 0.419 µM (active).
For `COc1cc2c(c(OC)c1)C1(CC(CC#N)C2)SCCS1` (stereo not drawn), the GI50 in [1] was > 100 µM (inactive); in assay [3], > 100 µM (inactive); in assay [4], above 100 µM; in assay [5], > 100 µM (inactive); in assay [6], > 100 µM (inactive); in assay [7], > 100 µM (inactive). In addition, the GI50 was > 100 µM (inactive) in assay [8]; > 100 µM (inactive) in assay [9]; > 100 µM (inactive) in assay [10]; > 100 µM (inactive) in assay [12]; < 0.01 µM (active) in [13].
On to `Cc1ccc(-c2cc[n+]3c(n2)oc2ccccc23)cc1`, for which the GI50 in [1] is 26.8 µM (inactive); in [2] it was 39.9 µM (inactive); in assay [3], 13.2 µM (inactive); in [14], 51.8 µM (inactive); in [4], above 100 µM; in assay [15] it was 39.7 µM (inactive). The GI50 was 16 µM (inactive) in assay [5]; 27.8 µM (inactive) in assay [16]; 18.8 µM (inactive) in assay [6]; 14.2 µM (inactive) in assay [17]; 72.8 µM (inactive) in [7]; 10.8 µM (inactive) in assay [8]. Also, the GI50 was 24.7 µM (inactive) in assay [18]; 75.2 µM (inactive) in assay [19]; 67.3 µM (inactive) in [10]; 26.7 µM (inactive) in [11]; > 100 µM (inactive) in [12]; 5.98 µM (inactive) in [13]. The GI50 in assay [20] was 16.3 µM (inactive).
Consider `C=CCOc1ccc(C(=N/NC(=O)c2ccccc2)/N=N/c2ccc([N+](=O)[O-])cc2)cc1OC`, for which the GI50 was > 100 µM (inactive) in assay [1]; > 100 µM (inactive) in assay [2]; > 100 µM (inactive) in [3]; 77.4 µM (inactive) in assay [14]; above 100 µM in assay [4]; > 100 µM (inactive) in assay [15]. In addition, the GI50 was > 100 µM (inactive) in assay [5]; > 100 µM (inactive) in assay [16]; > 100 µM (inactive) in [6]; 18.6 µM (inactive) in assay [17]; 64.1 µM (inactive) in assay [7]; 93.3 µM (inactive) in [8]. Further, the GI50 in assay [18], in assay [19], in assay [10], in assay [11], in assay [12] and in assay [13] was > 100 µM (inactive) throughout. Also, the GI50 in assay [20] was 29 µM (inactive).

The values above are taken from ChEMBL document CHEMBL1201862, “PubChem BioAssay data set” (2004).
